For orientation: Ki means a dissociation constant, usually derived from enzyme kinetics or from competition with a known ligand.

Ki data for one compound are collected here from patent US12692234B2, “Rock inhibitors and uses thereof” (Alcon Inc., priority 2024, dated 2026).

One assay addresses ROCK2 (Homo sapiens, UniProt O75116). Conditions: read-out: Ki (nM) ROCK2.
In another assay the target is ROCK1 (Homo sapiens, UniProt Q13464). Put plainly: Kinase inhibition assay (KINASE-GLO), ROCK1. The format is biochemical. A general note: Kinase-Glo reads ATP consumption through a luciferase reaction.
Chain of ROCK1 (Q13464 whole entry): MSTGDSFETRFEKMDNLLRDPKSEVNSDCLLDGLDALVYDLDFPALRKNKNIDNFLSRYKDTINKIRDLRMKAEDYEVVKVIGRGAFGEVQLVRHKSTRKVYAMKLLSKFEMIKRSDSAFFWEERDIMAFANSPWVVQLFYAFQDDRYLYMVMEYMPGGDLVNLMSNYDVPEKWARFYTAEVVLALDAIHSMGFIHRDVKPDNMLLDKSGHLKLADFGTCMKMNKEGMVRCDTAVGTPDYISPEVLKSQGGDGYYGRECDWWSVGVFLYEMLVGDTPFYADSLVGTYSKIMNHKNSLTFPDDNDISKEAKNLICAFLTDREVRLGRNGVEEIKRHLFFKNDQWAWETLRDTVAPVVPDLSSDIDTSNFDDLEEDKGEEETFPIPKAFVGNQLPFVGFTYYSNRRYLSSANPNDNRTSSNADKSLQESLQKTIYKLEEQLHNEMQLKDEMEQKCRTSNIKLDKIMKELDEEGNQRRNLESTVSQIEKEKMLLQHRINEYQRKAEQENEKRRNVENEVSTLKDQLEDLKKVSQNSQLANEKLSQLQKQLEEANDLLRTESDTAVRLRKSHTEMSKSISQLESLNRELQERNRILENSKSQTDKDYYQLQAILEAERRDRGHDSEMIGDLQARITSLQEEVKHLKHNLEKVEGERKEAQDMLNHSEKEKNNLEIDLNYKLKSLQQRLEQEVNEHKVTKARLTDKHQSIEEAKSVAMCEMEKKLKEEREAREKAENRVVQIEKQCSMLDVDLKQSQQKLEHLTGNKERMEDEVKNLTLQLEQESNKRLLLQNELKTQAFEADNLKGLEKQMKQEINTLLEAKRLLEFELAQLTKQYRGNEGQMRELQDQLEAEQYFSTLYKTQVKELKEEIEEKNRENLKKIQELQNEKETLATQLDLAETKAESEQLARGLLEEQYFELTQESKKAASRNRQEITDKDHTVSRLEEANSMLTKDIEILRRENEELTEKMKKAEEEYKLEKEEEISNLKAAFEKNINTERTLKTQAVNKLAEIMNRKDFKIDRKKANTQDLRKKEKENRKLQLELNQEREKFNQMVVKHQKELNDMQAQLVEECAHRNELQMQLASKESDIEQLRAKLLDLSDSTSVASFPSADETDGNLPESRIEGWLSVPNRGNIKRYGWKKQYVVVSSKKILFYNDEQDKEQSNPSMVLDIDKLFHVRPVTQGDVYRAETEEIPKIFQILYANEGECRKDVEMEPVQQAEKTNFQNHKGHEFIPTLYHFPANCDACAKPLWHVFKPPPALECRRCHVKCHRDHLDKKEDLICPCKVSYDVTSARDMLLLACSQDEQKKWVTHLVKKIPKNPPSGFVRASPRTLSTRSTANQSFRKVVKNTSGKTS

Chain of ROCK2 (O75116 whole entry): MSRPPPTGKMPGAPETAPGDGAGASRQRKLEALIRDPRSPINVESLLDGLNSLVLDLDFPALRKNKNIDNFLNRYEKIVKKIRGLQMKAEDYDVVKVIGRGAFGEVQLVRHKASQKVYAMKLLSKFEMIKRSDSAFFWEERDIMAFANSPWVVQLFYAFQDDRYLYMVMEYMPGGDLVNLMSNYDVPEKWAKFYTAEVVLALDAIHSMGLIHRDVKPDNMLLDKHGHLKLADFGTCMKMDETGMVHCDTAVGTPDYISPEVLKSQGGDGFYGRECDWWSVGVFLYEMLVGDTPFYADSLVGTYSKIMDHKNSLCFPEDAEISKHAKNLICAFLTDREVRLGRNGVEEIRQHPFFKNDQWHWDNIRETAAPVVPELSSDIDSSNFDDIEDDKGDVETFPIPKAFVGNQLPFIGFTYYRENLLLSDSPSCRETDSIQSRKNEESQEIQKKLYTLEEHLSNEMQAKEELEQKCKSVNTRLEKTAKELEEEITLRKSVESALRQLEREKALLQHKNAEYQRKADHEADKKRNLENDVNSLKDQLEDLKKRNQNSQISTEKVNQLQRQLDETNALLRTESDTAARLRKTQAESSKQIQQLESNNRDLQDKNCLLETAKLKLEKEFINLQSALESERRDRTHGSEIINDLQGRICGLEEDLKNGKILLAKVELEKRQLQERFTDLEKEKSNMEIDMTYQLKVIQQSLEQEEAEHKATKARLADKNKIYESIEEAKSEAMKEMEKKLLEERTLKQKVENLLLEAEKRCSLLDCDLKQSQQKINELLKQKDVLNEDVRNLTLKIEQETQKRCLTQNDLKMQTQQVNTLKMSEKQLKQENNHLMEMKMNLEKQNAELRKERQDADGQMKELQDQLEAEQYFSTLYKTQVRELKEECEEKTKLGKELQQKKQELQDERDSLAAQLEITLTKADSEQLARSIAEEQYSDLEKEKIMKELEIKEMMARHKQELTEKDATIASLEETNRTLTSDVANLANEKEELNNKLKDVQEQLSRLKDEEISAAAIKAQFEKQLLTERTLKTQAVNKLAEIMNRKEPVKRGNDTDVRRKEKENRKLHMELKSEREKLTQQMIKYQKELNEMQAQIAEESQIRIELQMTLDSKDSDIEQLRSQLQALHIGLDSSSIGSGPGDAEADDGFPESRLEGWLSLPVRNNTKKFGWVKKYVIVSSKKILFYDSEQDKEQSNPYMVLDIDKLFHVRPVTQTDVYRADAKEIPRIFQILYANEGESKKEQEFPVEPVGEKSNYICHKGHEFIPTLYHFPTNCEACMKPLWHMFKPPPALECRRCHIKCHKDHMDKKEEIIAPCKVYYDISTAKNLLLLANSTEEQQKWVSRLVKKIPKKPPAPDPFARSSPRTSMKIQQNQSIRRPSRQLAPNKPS

Consider `NC[C@@H](C(=O)Nc1ccc2cnccc2c1)c1ccc(CO)cc1`, for which the Ki at ROCK2 and on ROCK1 was 0.2 nM in each case.
